Like-named read-outs stand apart in the source and are kept apart here.
What was measured:
[1] = Prediction of hepatic extraction ratio from liver microsome stability; assay type: in vitro ADME; conditions: human liver microsomes, Well-Stirred model
Neisseria gonorrhoeae = test: MIC50 by CLSI agar dilution on a panel of N. gonorrhoeae clinical isolates; assay type: cell-based; conditions: Neisseria gonorrhoeae
Description: MIC50: MICs were determined in accordance with the appropriate Clinical and Laboratory Standards Institute (CLSI) methodology by the agar dilution susceptbility testing method in GC agar base.

[2] = molecular target: Neisseria gonorrhoeae FabI (Neisseria gonorrhoeae, UniProt A0ACH0F547); test: Neisseria gonorrhoeae FabI inhibition assay (NADH consumption)
[3] = Mouse cassette PK and oral bioavailability determination; assay type: in vivo, Female BALB/c mice; conditions: female, BALB/c, mouse, plasma; iv 1 mg/kg, po 2 mg/kg, cassette dosing; read-out: Mouse F (%)
Description: Dose volumes were 5 ml/kg and 10 ml/kg for IV and oral administration, respectively. Compounds were co-formulated in a 10% DMSO (v/v) and 40% Captisol (w/v) in saline solution formulation (up to 3 compounds in a cassette). […] Tmax, Cmax, AUC, clearance, volume of distribution and oral bioavailability were estimated from the plasma concentrations using non-compartmental pharmacokinetic models. In particular, oral bioavailability (F %) was defined as F=(Doseiv*AUCpo)/(Dosepo*AUCiv)*100

[4] = agar dilution, GC agar base, minimum of 15 clinical isolates, read-out: MIC50

Chain of Neisseria gonorrhoeae FabI (A0ACH0F547 1-261): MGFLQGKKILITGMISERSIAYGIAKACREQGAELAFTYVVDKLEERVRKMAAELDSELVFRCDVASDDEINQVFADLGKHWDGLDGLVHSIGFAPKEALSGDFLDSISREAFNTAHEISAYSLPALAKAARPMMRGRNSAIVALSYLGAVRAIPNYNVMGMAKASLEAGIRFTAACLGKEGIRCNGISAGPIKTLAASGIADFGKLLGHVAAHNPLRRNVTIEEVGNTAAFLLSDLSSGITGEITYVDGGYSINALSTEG

Compound | Predict Human hep ER [1] | MIC50 (Neisseria gonorrhoeae; [4]) [µg/mL] | IC50 [2] [nM] | bioavailability [3] [%] | MIC50 (Neisseria gonorrhoeae) [µg/mL]
Cc1oc2c(N)cccc2c1CN(C)C(=O)/C=C/c1cnc2c(c1)N[C@H](C)[C@H](O)C(=O)N2 [Compound 290, (E)-N-((7-amino-2-methylbenzofuran-3-yl)methyl)-3-((2R,3S)-3-hydroxy-2-methyl-4-oxo-2,3,4,5-tetrahydro-1H-pyrido[2,3-b][1,4]diazepin-8-yl)-N-methylacrylamide] | 0.1 | < 1 | < 10 |  | 
Cc1oc2c(Oc3ccc(C#N)cc3)cccc2c1CN(C)C(=O)/C=C/c1cnc2c(c1)NC[C@@](C)(O)C(=O)N2 [Compound 152, (R,E)-N-((7-(4-cyanophenoxy)-2-methylbenzofuran-3-yl)methyl)-3-(3-hydroxy-3-methyl-4-oxo-2,3,4,5-tetrahydro-1H-pyrido[2,3-b][1,4]diazepin-8-yl)-N-methylacrylamide] |  |  | < 10 |  | < 1
Cc1oc2c(N)cccc2c1CN(C)C(=O)/C=C/c1cnc2c(c1)NC[C@H](O)C(=O)N2 [Compound 276, (S,E)-N-((7-amino-2-methylbenzofuran-3-yl)methyl)-3-(3-hydroxy-4-oxo-2,3,4,5-tetrahydro-1H-pyrido[2,3-b][1,4]diazepin-8-yl)-N-methylacrylamide] |  | < 1 | < 10 | 43 | 
Cc1c(CN(C)C(=O)/C=C/c2cnc3c(c2)N[C@H](C)[C@H](O)C(=O)N3)oc2ccccc12 (single isomer, unassigned) [Compound 150] |  | < 1 | < 10 |  | 
Cc1c(CN(C)C(=O)/C=C/c2cnc3c(c2)NC[C@](C)(CO)C(=O)N3)oc2ccccc12 [Compound 33, (R,E)-3-(3-(hydroxymethyl)-3-methyl-4-oxo-2,3,4,5-tetrahydro-1H-pyrido[2,3-b][1,4]diazepin-8-yl)-N-methyl-N-((3-methylbenzofuran-2-yl)methyl)acrylamide] |  | < 1 | < 10 |  | 
Cc1oc2c(N)cccc2c1CN(C)C(=O)/C=C/c1cnc2c(c1)CCCC(=O)N2 [Compound 168, (E)-N-((7-amino-2-methylbenzofuran-3-yl)methyl)-N-methyl-3-(8-oxo-6,7,8,9-tetrahydro-5H-pyrido[2,3-b]azepin-3-yl)acrylamide] |  | < 1 | < 10 |  | 
Cc1c(CN(C)C(=O)/C=C/c2cnc3c(c2)N[C@](C)(CO)C(=O)N3)oc2ccccc12 (single isomer, unassigned) [Compound 209] |  | < 1 | < 10 |  | 
Cc1c(CN(C)C(=O)/C=C/c2cnc3c(c2)N[C@@](C)(CO)C(=O)N3)oc2ccccc12 (single isomer, unassigned) [Compound 208] |  | < 1 | < 10 |  | 
N#Cc1ccc(Oc2ccc(C3=C[C@@H]4CN(C(=O)/C=C/c5cnc6c(c5)NCCC(=O)N6)C[C@@H]4C3)cc2)cc1 (stereo in doubt) [Compound 198, 4-(4-((3aR,6aS)-2-((E)-3-(4-oxo-2,3,4,5-tetrahydro-1H-pyrido[2,3-b][1,4]diazepin-8-yl)acryloyl)-1,2,3,3a,4,6a-hexahydrocyclopenta[c]pyrrol-5-yl)phenoxy)benzonitrile] |  | < 1 | < 10 |  | 
Cc1oc2ccccc2c1CN(C)C(=O)/C=C/c1cnc2c(c1)NCC(C)(CO)C(=O)N2 (centres unmarked) [Compound 39, (E)-3-(3-(Hydroxymethyl)-3-methyl-4-oxo-2,3,4,5-tetrahydro-1H-pyrido[2,3-b][1,4]diazepin-8-yl)-N-methyl-N-((2-methylbenzofuran-3-yl)methyl)acrylamide] |  | < 1 | < 10 |  | 
Cc1c(CN(C)C(=O)/C=C/c2cnc3c(c2)NC[C@@](C)(O)C(=O)N3)oc2cccc(N)c12 [Compound 143, (R,E)-N-((4-amino-3-methylbenzofuran-2-yl)methyl)-3-(3-hydroxy-3-methyl-4-oxo-2,3,4,5-tetrahydro-1H-pyrido[2,3-b][1,4]diazepin-8-yl)-N-methylacrylamide] |  | < 1 | < 10 |  | 
N#Cc1cccc(Oc2ccc(C3=C[C@H]4CN(C(=O)/C=C/c5cnc6c(c5)NCCC(=O)N6)C[C@H]4C3)cc2)c1 [Compound 123, 3-(4-((3rS,6rR)-2-((E)-3-(4-Oxo-2,3,4,5-tetrahydro-1H-pyrido[2,3-b][1,4]diazepin-8-yl)acryloyl)-1,2,3,3r,4,6r-hexahydrocyclopenta[c]pyrrol-5-yl)phenoxy)benzonitrile] |  | < 1 | < 10 |  | 

Continued, in another order:

Predict Human hep ER [1] | MIC50 (Neisseria gonorrhoeae; [4]) [µg/mL] | IC50 [2] [nM] | bioavailability [3] [%] | Compound | MIC50 (Neisseria gonorrhoeae) [µg/mL]
0.08 | < 1 | < 10 |  | Cc1oc2c(Oc3ccc4c(c3)OCO4)cccc2c1CN(C)C(=O)/C=C/c1cnc2c(c1)NCCC(=O)N2 [Compound 119, (E)-N-((7-(Benzo[d][1,3]dioxol-5-yloxy)-2-methylbenzofuran-3-yl)methyl)-N-methyl-3-(4-oxo-2,3,4,5-tetrahydro-1H-pyrido[2,3-b][1,4]diazepin-8-yl)acrylamide] | 
 | < 1 | < 10 | 16 | COc1cccc(Oc2cccc3c(CN(C)C(=O)/C=C/c4cnc5c(c4)NC[C@@](C)(O)C(=O)N5)c(C)oc23)c1 [Compound 183, (R,E)-3-(3-hydroxy-3-methyl-4-oxo-2,3,4,5-tetrahydro-1H-pyrido[2,3-b][1,4]diazepin-8-yl)-N-((7-(3-methoxyphenoxy)-2-methylbenzofuran-3-yl)methyl)-N-methylacrylamide] | 
 | < 1 | < 10 |  | COc1cccc(Oc2cccc3c(CN(C)C(=O)/C=C/c4cnc5c(c4)CCCC(=O)N5)c(C)oc23)c1 [Compound 186, (E)-N-((7-(3-methoxyphenoxy)-2-methylbenzofuran-3-yl)methyl)-N-methyl-3-(8-oxo-6,7,8,9-tetrahydro-5H-pyrido[2,3-b]azepin-3-yl)acrylamide] | 
 | < 1 | < 10 |  | Cc1oc2c(Oc3ccc4c(c3)OCC4)cccc2c1CN(C)C(=O)/C=C/c1cnc2c(c1)NC(C)(C)C(=O)N2 [Compound 164, (E)-N-((7-((2,3-dihydrobenzofuran-6-yl)oxy)-2-methylbenzofuran-3-yl)methyl)-3-(2,2-dimethyl-3-oxo-1,2,3,4-tetrahydropyrido[2,3-b]pyrazin-7-yl)-N-methylacrylamide] | 
 | < 1 | < 10 | 12 | COc1cccc(Oc2cccc3c(CN(C)C(=O)/C=C/c4cnc5c(c4)CCCC(=O)N5)c(C)sc23)c1 [Compound 194, (E)-N-((7-(3-methoxyphenoxy)-2-methylbenzo[b]thiophen-3-yl)methyl)-N-methyl-3-(8-oxo-6,7,8,9-tetrahydro-5H-pyrido[2,3-b]azepin-3-yl)acrylamide] | 
 | < 1 | < 10 |  | Cc1oc2c(Oc3cncs3)cccc2c1CN(C)C(=O)/C=C/c1cnc2c(c1)NCCC(=O)N2 [Compound 101, (E)-N-Methyl-N-((2-methyl-7-(thiazol-5-yloxy)benzofuran-3-yl)methyl)-3-(4-oxo-2,3,4,5-tetrahydro-1H-pyrido[2,3-b][1,4]diazepin-8-yl)acrylamide] | 
0.34 | < 1 | < 10 |  | Cc1oc2c(N)cccc2c1CN(C)C(=O)/C=C/c1cnc2c(c1)NC(C)(C)C(=O)N2 [Compound 287, (E)-N-((7-amino-2-methylbenzofuran-3-yl)methyl)-3-(2,2-dimethyl-3-oxo-1,2,3,4-tetrahydropyrido[2,3-b]pyrazin-7-yl)-N-methylacrylamide] | 

Source: patent US12545672B2, “Antibiotic compounds, methods of manufacturing the same, pharmaceutical compositions containing the same and uses thereof” (Debiopharm International S.A., priority 2018, dated 2026)
